Molecular target: cruzain (Trypanosoma cruzi, UniProt P25779);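 for Cruzain 0’ Inhibition: at 5 µM compound concentration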;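 for Cruzain 10’ Inhibition: at 5 µM compound concentration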;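 for Cruzain Inhibition 0’: at 5 µM compound concentration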;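 for Cruzain Inhibition 10’: at 5 µM compound concentration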
Assay: biochemical
Details: 0’ (no pre-incubation); sheet Screening results
Procedure, shortened: (§1)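 Recombinant enzymes assayed by Z-Phe-Arg-AMC cleavage at 25 °C, fluorescence 340/440 nm over 5–7 min, with 10 min or no enzyme–compound preincubation.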

Chain of cruzain (P25779 123-337 limits assumed): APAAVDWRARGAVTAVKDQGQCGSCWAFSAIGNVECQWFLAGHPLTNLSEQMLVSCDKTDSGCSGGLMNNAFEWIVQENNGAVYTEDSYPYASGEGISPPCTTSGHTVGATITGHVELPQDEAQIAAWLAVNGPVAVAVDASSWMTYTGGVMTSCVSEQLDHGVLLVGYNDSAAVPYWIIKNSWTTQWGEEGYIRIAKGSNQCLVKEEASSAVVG

| SMILES | Cruzain Inhibition 0’ |
| --- | --- |
| O=C(Nc1nnc(-c2ccc(Cl)s2)o1)c1ccc(Cl)s1 [MMV676501] | -8% |
| Cc1ccc2oc(-c3cc(NC(=O)Cc4ccccc4)ccc3Cl)nc2c1 [MMV676509] | 21% |
| O=C(Nc1nc(-c2ccccn2)cs1)c1cncn1-c1ccccc1 [MMV676512] | -27% |
| O=C(c1cc2ccccc2o1)N1CCN(Cc2ccc3c(c2)OCO3)CC1 [MMV676520] | -1.2% |
| COc1ccc(-c2cc(NC(=O)c3ccc(F)cc3Cl)ccc2OC)cc1 [MMV676526] | -17% |
| Cc1cccc(NC(=O)c2cc(S(=O)(=O)N(C)c3ccc(F)cc3)ccc2Cl)n1 [MMV676528] | 3.7% |
| COCC(C)NC(=O)CSc1ncnc2sc(-c3ccccc3)cc12 (stereo not shown) [MMV676536] | 18% |
| O=C(NCCc1c[nH]c2ccccc12)c1cc2ccccc2oc1=O [MMV676539] | 14% |
| COc1ccc(Nc2ccccc2NC(=O)c2ccc(=O)[nH]c2)cc1 [MMV676554] | 2.8% |
| Cc1nnc(NCc2cccc(Cl)c2)c2ccccc12 [MMV676555] | -1.4% |
| CC1=NN(c2nc3ccccc3s2)C(=O)C1Cc1cccc2ccccc12 (stereo not shown) [MMV676558] | -23% |
| COc1ccc(-c2nc(-c3cccc(NC(=O)Cc4ccc(F)cc4)c3)no2)cc1OC [MMV676571] | 6% |

Same assay, conditions: 0’ (pre-incubation time); sheet "Screening results"

| SMILES | Cruzain 0’ Inhibition |
| --- | --- |
| Nc1cccnc1Nc1ccc(Cl)cc1 [MMV676524] | 4.7% |

Same assay, conditions: 5 µM, PB library solutions, 10 min pre-incubation, vs DMSO control

| SMILES | Increase in the initial velocity of the reaction (%) 5 µM using PB samples Cruzain |
| --- | --- |
| O=C(Nc1nc(-c2ccccn2)cs1)c1cncn1-c1ccccc1 [MMV676512] | 84 ± 54% |

Same assay, conditions: 5 µM, solid samples, 10 min pre-incubation, vs DMSO control

| SMILES | Increase in the initial velocity of the reaction (%) 5 µM using solid samples Cruzain |
| --- | --- |
| O=C(Nc1nc(-c2ccccn2)cs1)c1cncn1-c1ccccc1 [MMV676512] | 14 ± 9% |

Same assay, conditions: 100 µM, solid samples, 10 min pre-incubation, vs DMSO control

| SMILES | Increase in the initial velocity of the reaction (%) 100 µM using solid samples Cruzain |
| --- | --- |
| O=C(Nc1nc(-c2ccccn2)cs1)c1cncn1-c1ccccc1 [MMV676512] | 24 ± 5% |

Same assay, conditions: 10’ (pre-incubation time); sheet "Screening results"

| SMILES | Cruzain 10’ Inhibition |
| --- | --- |
| Nc1cccnc1Nc1ccc(Cl)cc1 [MMV676524] | 13% |

Same assay, conditions: 10’ (pre-incubation); sheet Screening results

| SMILES | Cruzain Inhibition 10’ |
| --- | --- |
| O=C(Nc1nnc(-c2ccc(Cl)s2)o1)c1ccc(Cl)s1 [MMV676501] | -16% |
| Cc1ccc2oc(-c3cc(NC(=O)Cc4ccccc4)ccc3Cl)nc2c1 [MMV676509] | 5% |
| O=C(Nc1nc(-c2ccccn2)cs1)c1cncn1-c1ccccc1 [MMV676512] | -84% |
| O=C(c1cc2ccccc2o1)N1CCN(Cc2ccc3c(c2)OCO3)CC1 [MMV676520] | -3.3% |
| COc1ccc(-c2cc(NC(=O)c3ccc(F)cc3Cl)ccc2OC)cc1 [MMV676526] | -8% |
| Cc1cccc(NC(=O)c2cc(S(=O)(=O)N(C)c3ccc(F)cc3)ccc2Cl)n1 [MMV676528] | 6% |
| COCC(C)NC(=O)CSc1ncnc2sc(-c3ccccc3)cc12 (stereo not shown) [MMV676536] | 16% |
| O=C(NCCc1c[nH]c2ccccc12)c1cc2ccccc2oc1=O [MMV676539] | 14% |
| COc1ccc(Nc2ccccc2NC(=O)c2ccc(=O)[nH]c2)cc1 [MMV676554] | 0.5% |
| Cc1nnc(NCc2cccc(Cl)c2)c2ccccc12 [MMV676555] | 3.2% |
| CC1=NN(c2nc3ccccc3s2)C(=O)C1Cc1cccc2ccccc12 (stereo not shown) [MMV676558] | -18% |
| COc1ccc(-c2nc(-c3cccc(NC(=O)Cc4ccc(F)cc4)c3)no2)cc1OC [MMV676571] | 4% |

Same assay, conditions: solid samples, varying compound concentrations

| SMILES | Increase in the enzyme velocity in confirmatory assays |
| --- | --- |
| O=C(Nc1nc(-c2ccccn2)cs1)c1cncn1-c1ccccc1 [MMV676512] | no increase in the enzyme velocity |

Molecular target: T1, TbrCatL (Trypanosoma brucei rhodesiense, UniProt Q95PM0)
T1 construct: Conor Caffrey (University of California San Diego)
T1 sequence (Q95PM0 entry or part of it): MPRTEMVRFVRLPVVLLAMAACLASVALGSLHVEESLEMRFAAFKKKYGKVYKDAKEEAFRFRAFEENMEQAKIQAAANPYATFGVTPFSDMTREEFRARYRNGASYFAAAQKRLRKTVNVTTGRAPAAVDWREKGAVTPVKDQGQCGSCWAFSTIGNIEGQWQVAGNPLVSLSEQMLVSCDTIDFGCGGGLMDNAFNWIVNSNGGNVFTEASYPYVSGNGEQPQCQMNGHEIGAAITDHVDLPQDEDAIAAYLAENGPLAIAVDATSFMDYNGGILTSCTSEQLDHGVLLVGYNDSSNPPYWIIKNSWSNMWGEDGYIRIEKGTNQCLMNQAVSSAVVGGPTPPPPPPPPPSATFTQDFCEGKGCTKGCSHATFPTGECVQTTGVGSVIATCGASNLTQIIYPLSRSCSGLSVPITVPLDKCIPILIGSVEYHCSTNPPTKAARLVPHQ
Assay: TbrCatL enzymatic inhibition assay (cleavage of fluorogenic substrate Z-FR-AMC);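 for TbrCatL 0’ Inhibition: at 5 µM compound concentration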;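 for TbrCatL 10’ Inhibition: at 5 µM compound concentration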;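 for TbrCatL Inhibition 0’: at 5 µM compound concentration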;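 for TbrCatL Inhibition 10’: at 5 µM compound concentration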
Assay type: biochemical
Details: 0’ (no pre-incubation); sheet Screening results
Procedure, shortened: as §1

| SMILES | TbrCatL Inhibition 0’ |
| --- | --- |
| O=C(Nc1nnc(-c2ccc(Cl)s2)o1)c1ccc(Cl)s1 [MMV676501] | -3.6% |
| Cc1ccc2oc(-c3cc(NC(=O)Cc4ccccc4)ccc3Cl)nc2c1 [MMV676509] | 11% |
| O=C(Nc1nc(-c2ccccn2)cs1)c1cncn1-c1ccccc1 [MMV676512] | -27% |
| O=C(c1cc2ccccc2o1)N1CCN(Cc2ccc3c(c2)OCO3)CC1 [MMV676520] | 5% |
| COc1ccc(-c2cc(NC(=O)c3ccc(F)cc3Cl)ccc2OC)cc1 [MMV676526] | -15% |
| Cc1cccc(NC(=O)c2cc(S(=O)(=O)N(C)c3ccc(F)cc3)ccc2Cl)n1 [MMV676528] | -3% |
| COCC(C)NC(=O)CSc1ncnc2sc(-c3ccccc3)cc12 (stereo not shown) [MMV676536] | 13% |
| O=C(NCCc1c[nH]c2ccccc12)c1cc2ccccc2oc1=O [MMV676539] | 10% |
| COc1ccc(Nc2ccccc2NC(=O)c2ccc(=O)[nH]c2)cc1 [MMV676554] | 10% |
| Cc1nnc(NCc2cccc(Cl)c2)c2ccccc12 [MMV676555] | 3% |
| CC1=NN(c2nc3ccccc3s2)C(=O)C1Cc1cccc2ccccc12 (stereo not shown) [MMV676558] | -23% |
| COc1ccc(-c2nc(-c3cccc(NC(=O)Cc4ccc(F)cc4)c3)no2)cc1OC [MMV676571] | 8% |

Same assay, conditions: 0’ (pre-incubation time); sheet "Screening results"

| SMILES | TbrCatL 0’ Inhibition |
| --- | --- |
| Nc1cccnc1Nc1ccc(Cl)cc1 [MMV676524] | 11% |

Same assay, conditions: 5 µM, PB library solutions, 10 min pre-incubation, vs DMSO control

| SMILES | Increase in the initial velocity of the reaction (%) 5 µM using PB samples TbrCatL |
| --- | --- |
| O=C(Nc1nc(-c2ccccn2)cs1)c1cncn1-c1ccccc1 [MMV676512] | 109 ± 71% |

Same assay, conditions: 10’ (pre-incubation time); sheet "Screening results"

| SMILES | TbrCatL 10’ Inhibition |
| --- | --- |
| Nc1cccnc1Nc1ccc(Cl)cc1 [MMV676524] | 11% |

Same assay, conditions: 10’ (pre-incubation); sheet Screening results

| SMILES | TbrCatL Inhibition 10’ |
| --- | --- |
| O=C(Nc1nnc(-c2ccc(Cl)s2)o1)c1ccc(Cl)s1 [MMV676501] | -11% |
| Cc1ccc2oc(-c3cc(NC(=O)Cc4ccccc4)ccc3Cl)nc2c1 [MMV676509] | 12% |
| O=C(Nc1nc(-c2ccccn2)cs1)c1cncn1-c1ccccc1 [MMV676512] | -109% |
| O=C(c1cc2ccccc2o1)N1CCN(Cc2ccc3c(c2)OCO3)CC1 [MMV676520] | -4.7% |
| COc1ccc(-c2cc(NC(=O)c3ccc(F)cc3Cl)ccc2OC)cc1 [MMV676526] | -15% |
| Cc1cccc(NC(=O)c2cc(S(=O)(=O)N(C)c3ccc(F)cc3)ccc2Cl)n1 [MMV676528] | 1.8% |
| COCC(C)NC(=O)CSc1ncnc2sc(-c3ccccc3)cc12 (stereo not shown) [MMV676536] | 33% |
| O=C(NCCc1c[nH]c2ccccc12)c1cc2ccccc2oc1=O [MMV676539] | 20% |
| COc1ccc(Nc2ccccc2NC(=O)c2ccc(=O)[nH]c2)cc1 [MMV676554] | 4.5% |
| Cc1nnc(NCc2cccc(Cl)c2)c2ccccc12 [MMV676555] | -4.6% |
| CC1=NN(c2nc3ccccc3s2)C(=O)C1Cc1cccc2ccccc12 (stereo not shown) [MMV676558] | -63% |
| COc1ccc(-c2nc(-c3cccc(NC(=O)Cc4ccc(F)cc4)c3)no2)cc1OC [MMV676571] | 10% |

Same assay, conditions: TbrCatL 10′ inc, screening at 5 µM

| SMILES | Increase in initial velocity of substrate cleavage in comparison to the DMSO control |
| --- | --- |
| O=C(Nc1nc(-c2ccccn2)cs1)c1cncn1-c1ccccc1 [MMV676512] | 2 fold |

— publication PMC9967275, “Screening the Pathogen Box to Discover and Characterize New Cruzain and TbrCatL Inhibitors” (Pathogens, 2023)
